Experimental data reported in patent publication US20210330611A1, “THERAPY FOR NEUROLOGICAL DISEASES/DISORDERS” (priority 2020, published 2021).
“And” between values parts separate entries of the source, which are not always exact repeats. Equal values may be shown once. Where a name gives a salt, the structure may show the parent alone. Read-outs that look alike come from different tables or passages of the source.

Columns and labels:
[1] = tested on: fibrin- and LPS-induced microglia activation; test: cells; type: cell-based, rat
[2] = tested on: LPS-induced microglia activation; test: Image-based assay of LPS-induced microglia activation (HTS and dose response); type: cell-based, rat; settings: for inhibition at 10 µM: Rattus norvegicus, Microglia, read-out: LPS % inhibition
[3] = tested on: fibrin-induced microglia activation; test: Image-based assay of fibrin-induced microglia activation (HTS and dose response); type: cell-based, rat; settings: for inhibition at 10 µM: Rattus norvegicus, Microglia, read-out: Fibrin % inhibition
[4] = quadrant by fibrin and LPS inhibition, HTS at 10 μM
[5] = primary microglia HTS, LPS stimulation, compounds at 10 μM
[6] = primary microglia HTS, fibrin stimulation, compounds at 10 μM
[7] = primary microglia HTS, LPS stimulation, compounds at 10 μM, 10 µM
[8] = quadrant by fibrin and LPS inhibition in HTS of 1907 compounds
[9] = 48 h, primary microglia HTS, LPS stimulation, increased cell size (>800 μm^2) as marker of activation
[10] = primary microglia HTS, fibrin stimulation, increased cell size (>800 μm^2) as marker of activation
[11] = primary HTS, 10 μM, LPS-stimulated primary microglia
[12] = primary HTS, 10 μM, fibrin-stimulated primary microglia
[13] = classification by fibrin and LPS inhibition, HTS at 10 μM
[14] = primary microglia HTS, 10 μM, LPS-stimulated, cell size >800 μm^2 as marker of activation

CNC[C@H](O)c1ccc(O)c(O)c1.O=C(O)C(O)C(O)C(=O)O
Quadrant (FIG. 5b) [1]: Q4 | LPS % inhibition ([2]; 10 µM): 19% | LPS % cell toxicity (primary rat microglia): 0% | Fibrin % inhibition ([3]; 10 µM): 35%

CC(NC(C)(C)C)C(=O)c1cccc(Cl)c1.Cl (centres unmarked)
Quadrant (FIG. 5b) [1]: Q4 | LPS % inhibition ([2]; 10 µM): 27% | LPS % cell toxicity (primary rat microglia): 2% | Fibrin % inhibition ([3]; 10 µM): −15%

NCCS(=O)(=O)O [2-Aminoethanesulfonic Acid]
Quadrant (FIG. 5b) [1, 4]: Q4 | inhibition at 10 µM [2, 5]: 19% | LPS % cell toxicity (primary rat microglia; rat): 0% | inhibition at 10 µM [3, 6]: -13%

CC(=O)N[C@@H](CS)C(=O)O [Acetylcysteine]
Quadrant (FIG. 5b) [1, 4]: Q4 | inhibition at 10 µM [2, 5]: 7% | LPS % inhibition [2, 7]: 13% | LPS % cell toxicity (primary rat microglia; rat): 0%

CN(C)c1nc(N(C)C)nc(N(C)C)n1 [Altretamine]
Quadrant (FIG. 5b) [1, 4]: Q4 | inhibition at 10 µM [2, 5]: 16% | LPS % cell toxicity (primary rat microglia; rat): 0% | inhibition at 10 µM [3, 6]: -29%

NC12CC3CC(CC(C3)C1)C2 [Amantadine]
Quadrant (FIG. 5b) [1, 4]: Q4 | LPS % inhibition [2, 7]: 3% and −5% | LPS % cell toxicity (primary rat microglia; rat): 0%

CCOC(=O)C1=C(COCCN)NC(C)=C(C(=O)OC)C1c1ccccc1Cl (centres unmarked) [Amlodipine]
Quadrant (FIG. 5b) [1, 8]: Q1 | Quadrant (FIG. 5b) [1, 4]: Q4 | inhibition at 10 µM [2, 9]: 59% | inhibition at 10 µM [2, 5]: 36% | LPS % cell toxicity (primary rat microglia; rat): 2% | inhibition at 10 µM [3, 6]: -17% | inhibition at 10 µM [3, 10]: -29%

CCN(CC)Cc1cc(Nc2ccnc3cc(Cl)ccc23)ccc1O [Amodiaquine Dihydrochloride]
Quadrant (FIG. 5b) [1, 8]: Q1 | inhibition at 10 µM [2, 9]: 114% | LPS % cell toxicity (primary rat microglia; rat): 85% | inhibition at 10 µM [3, 10]: 4%

CC1CNc2c(cccc2S(=O)(=O)N[C@@H](CCCNC(=N)N)C(=O)N2CC[C@@H](C)C[C@@H]2C(=O)O)C1 (some centres unmarked) [Argatroban]
Quadrant (FIG. 5b) [1, 4]: Q4 | inhibition at 10 µM [2, 5]: 8% | LPS % cell toxicity (primary rat microglia; rat): 0% | inhibition at 10 µM [3, 6]: -10%

O=C(CCCl)NCc1ccccc1 [Beclamide]
Quadrant (FIG. 5b) [1, 4]: Q4 | inhibition at 10 µM [2, 5]: 2% | LPS % cell toxicity (primary rat microglia; rat): 0% | inhibition at 10 µM [3, 6]: 19%

OC(CCN1CCCCC1)(c1ccccc1)C1CC2C=CC1C2 (centres unmarked) [Biperiden]
Quadrant (FIG. 5b) ([1]; primary HTS, 10 μM): Q4 | inhibition at 10 µM [2, 11]: 17% | LPS % cell toxicity (primary rat microglia; rat): 1% | inhibition at 10 µM [3, 12]: 2%

CCN(CC)CCNC(=O)c1cc(Br)c(N)cc1OC [Bromopride]
Quadrant (FIG. 5b) ([1]; primary HTS, 10 μM): Q4 | inhibition at 10 µM [2, 11]: 4% | LPS % cell toxicity (primary rat microglia; rat): 0% | inhibition at 10 µM [3, 12]: -2%

O=C(CCCN1CCC(O)(c2ccc(Br)cc2)CC1)c1ccc(F)cc1 [Bromperidol]
Quadrant (FIG. 5b) ([1]; primary HTS, 10 μM): Q4 | inhibition at 10 µM [2, 11]: 7% | LPS % cell toxicity (primary rat microglia; rat): 0% | inhibition at 10 µM [3, 12]: -6%

Cn1c(=O)c2c(ncn2C)n(C)c1=O [Caffeine]
Quadrant (FIG. 5b) [1]: Q4 | inhibition at 10 µM [2]: 10% | LPS % cell toxicity (primary rat microglia; rat): 0% | inhibition at 10 µM [3]: 2%

C[C@]12CCC(=O)C=C1C=C[C@@H]1[C@@H]2CC[C@@]2(C)[C@H]1CC[C@@]2(O)CCC(=O)O [Canrenoic Acid, Potassium Salt]
Quadrant (FIG. 5b) ([1]; primary HTS, 10 μM): Q4 | inhibition at 10 µM [2, 11]: 8% | LPS % cell toxicity (primary rat microglia; rat): 0% | inhibition at 10 µM [3, 12]: -8%

O=NN(CCCl)C(=O)NCCCl [Carmustine]
Quadrant (FIG. 5b) ([1]; primary HTS, 10 μM): Q4 | inhibition at 10 µM [2, 11]: 9% | LPS % cell toxicity (primary rat microglia; rat): 0% | inhibition at 10 µM [3, 12]: 1%

O=C(N[C@H](CO)[C@H](O)c1ccc([N+](=O)[O-])cc1)C(Cl)Cl [Chloramphenicol]
Quadrant (FIG. 5b) ([1]; primary HTS, 10 μM): Q4 | inhibition at 10 µM [2, 11]: 6% | LPS % cell toxicity (primary rat microglia; rat): 0% | inhibition at 10 µM [3, 12]: 19%

C[C@@H]1C[C@@H]([C@H](O)CC2CC(=O)NC(=O)C2)C(=O)[C@@H](C)C1 [Cycloheximide]
Quadrant (FIG. 5b) [1, 8]: Q2 | inhibition at 10 µM [2, 9]: 123% | LPS % cell toxicity (primary rat microglia; rat): 45% | inhibition at 10 µM [3, 10]: 108%

CC(C)NC[C@@H](O)COc1cccc2ccccc12 [Dexpropranolol Hydrochloride]
Quadrant (FIG. 5b) [1]: Q4 | inhibition at 10 µM [2]: 19% | LPS % cell toxicity (primary rat microglia; rat): 0% | inhibition at 10 µM [3]: -21%

Cc1c(C(N)=O)cc([N+](=O)[O-])cc1[N+](=O)[O-] [Dinitolmide]
Quadrant (FIG. 5b) [1]: Q4 | inhibition at 10 µM [2]: 10% | LPS % cell toxicity (primary rat microglia; rat): 0% | inhibition at 10 µM [3]: -45%

CN1CCC(OC(c2ccccc2)c2ccccc2)CC1 [Diphenylpyraline]
Quadrant (FIG. 5b) [1]: Q4 | inhibition at 10 µM [2]: 6% | LPS % cell toxicity (primary rat microglia; rat): 0% | inhibition at 10 µM [3]: -69%

OCCN(CCO)c1nc(N2CCCCC2)c2nc(N(CCO)CCO)nc(N3CCCCC3)c2n1 [Dipyridamole]
Quadrant (FIG. 5b) [1]: Q4 | inhibition at 10 µM [2]: 6% | LPS % cell toxicity (primary rat microglia; rat): 0% | inhibition at 10 µM [3]: 11%

O=C(O[C@@H]1C[C@@H]2C[C@H]3C[C@H](C1)N2CC3=O)c1c[nH]c2ccccc12 [Dolasetron]
Quadrant (FIG. 5b) [1, 13]: Q4 | inhibition at 10 µM [2, 5]: -3% | LPS % cell toxicity (primary rat microglia; rat): 0% | inhibition at 10 µM [3, 6]: -19%

CC[C@H]1CN2CCc3cc(OC)c(OC)cc3[C@@H]2C[C@@H]1C[C@H]1NCCc2cc(OC)c(OC)cc21 [Emetine, Emetine Dihydrochloride]
Quadrant (FIG. 5b) [1]: Q2 | LPS % inhibition [2]: 115% | LPS % cell toxicity (primary rat microglia): 46% | Fibrin % inhibition [3]: 117%

C[C@H](N[C@@H](CCc1ccccc1)C(=O)O)C(=O)N1CCC[C@H]1C(=O)O [Enalaprilat]
Quadrant (FIG. 5b) [1, 13]: Q4 | LPS % inhibition [2, 5]: 18% | LPS % cell toxicity (primary rat microglia): 0% | Fibrin % inhibition [3, 6]: 25%

CC1(C)[C@@H](O)CC[C@]2(C)[C@H]3C(=O)C=C4[C@@H]5C[C@@](C)(C(=O)O)CC[C@]5(C)CC[C@@]4(C)[C@]3(C)CC[C@@H]12 [Enoxolone]
Quadrant (FIG. 5b) [1, 13]: Q4 | inhibition at 10 µM [2, 5]: 7% | LPS % cell toxicity (primary rat microglia; rat): 0% | inhibition at 10 µM [3, 6]: -40%

CCN1CCN(c2cc3c(cc2F)c(=O)c(C(=O)O)cn3C2CC2)CC1 [Enrofloxacin]
Quadrant (FIG. 5b) [1, 13]: Q4 | inhibition at 10 µM [2, 5]: 23% | LPS % cell toxicity (primary rat microglia; rat): 1% | inhibition at 10 µM [3, 6]: 5%

CCc1cc(C(N)=S)ccn1 [Ethionamide]
Quadrant (FIG. 5b) [1]: Q4 | inhibition at 10 µM [2]: 14% | LPS % cell toxicity (primary rat microglia; rat): 0% | inhibition at 10 µM [3]: 17%

C#C[C@]1(O)CC[C@H]2[C@@H]3CCC4=CC(=O)CC[C@]4(C)[C@H]3CC[C@@]21C [Ethisterone]
Quadrant (FIG. 5b) [1, 13]: Q4 | inhibition at 10 µM [2, 5]: 13% | LPS % cell toxicity (primary rat microglia; rat): 1% | inhibition at 10 µM [3, 6]: -5%

CNCCCC12CCC(c3ccccc31)c1ccccc12 [Maprotiline]
LPS % inhibition [2]: 78% | LPS % cell toxicity (primary rat microglia; rat): 2% | Fibrin % inhibition [3]: −4%

CN1CCN(CCCN2c3ccccc3Sc3ccc(Cl)cc32)CC1 [Prochlorperazine]
inhibition at 10 µM ([2]; 48 h): 17% | LPS % cell toxicity (primary rat microglia; rat): 1% | inhibition at 10 µM [3]: 6%

CCCc1nc(C)c2c(=O)[nH]c(-c3cc(S(=O)(=O)N4CCN(CC)CC4)ccc3OCC)nn12 [Vardenafil]
Quadrant (FIG. 5b) ([1]; HTS of 1907 compounds, quadrant by fibrin and LPS inhibition): Q4 | inhibition at 10 µM [2, 14]: 12% | LPS % inhibition [2, 14]: 13% | LPS % cell toxicity (primary rat microglia; rat): 0%
